Measured values: the NIST ThermoML archive (doi:10.1016/j.jct.2015.02.019)

How the values were obtained:
[1] = 298.15 K; 100 kPa; Liquid; Vibrating tube method
[2] = refractive index (Na D-line) (dimensionless); details: 298.15 K; 101.33 kPa; Liquid; Standard Abbe refractometry
[3] = xn = mol fraction of the nth substance listed; details: 298.15 K, 100 kPa, Liquid, Vibrating tube method
[4] = excess molar enthalpy (molar enthalpy of mixing); xn = mol fraction of the nth substance listed; details: 298.15 K, 100 kPa, Liquid, Calvet calorimetry

CO [methanol]
Details	mass density [kg/m3]	refractive index
[1]	786.4	–
[2]	–	1.3261

CO [methanol] + CCCCC(=O)OC
Details	mass density [kg/m3]
[3], x2 = 0	786.4

CO [methanol] + COC=O
Details	mass density [kg/m3]
[3], x2 = 0	786.4

COC=O [methyl methanoate]
Details	mass density [kg/m3]	refractive index
[1]	966.28	–
[2]	–	1.3411

COC=O [methyl methanoate] + CCCCC(=O)OC
Details	mass density [kg/m3]
[3], x2 = 0	966.28

COC=O [methyl methanoate] + CO
Details	excess molar enthalpy, [4] [kcal/mol]	mass density, [3] [kg/m3]
x1 = 0.02	0.0179	–
x1 = 0.0337	–	795.73
x1 = 0.0487	0.0428	–
x1 = 0.0833	0.0743	808.8
x1 = 0.1225	0.105	–
x1 = 0.1557	–	826.74
x1 = 0.167	0.138	–
x1 = 0.19	–	834.77
x1 = 0.2135	0.168	–
x1 = 0.2499	–	848.14
x1 = 0.2613	0.195	–
x1 = 0.3086	0.218	–
x1 = 0.3219	–	863.26
x1 = 0.3501	0.236	–
x1 = 0.3644	0.241	–
x1 = 0.3906	–	876.73
x1 = 0.3943	0.252	–
x1 = 0.4077	0.257	–
x1 = 0.4572	0.27	–
x1 = 0.4946	–	895.61
x1 = 0.5127	0.282	–
x1 = 0.5416	–	903.58
x1 = 0.5783	0.286	–
x1 = 0.646	0.282	–
x1 = 0.6467	–	920.31
x1 = 0.7178	0.264	–
x1 = 0.7271	–	932.1
x1 = 0.7815	–	939.62
x1 = 0.7842	0.235	–
x1 = 0.8517	0.193	–
x1 = 0.8533	–	949.01
x1 = 0.8968	–	954.39
x1 = 0.9098	0.14	–
x1 = 0.9357	–	959.02
x1 = 0.9505	0.081	–
x1 = 1	–	966.28

CCCCC(=O)OC [methyl pentanoate]
Details	mass density [kg/m3]	refractive index
[1]	884.78	–
[2]	–	1.3952

CCCCC(=O)OC [methyl pentanoate] + CO
Details	excess molar enthalpy [kcal/mol]	mass density [kg/m3]
[3], x1 = 0.0235	–	793.56
[3], x1 = 0.062	–	803.85
[3], x1 = 0.0741	–	806.78
[3], x1 = 0.1314	–	818.95
[3], x1 = 0.1512	–	822.61
[3], x1 = 0.2017	–	830.95
[3], x1 = 0.248	–	837.51
[3], x1 = 0.304	–	844.36
[3], x1 = 0.3501	–	849.28
[3], x1 = 0.4499	–	858.16
[3], x1 = 0.5121	–	862.75
[3], x1 = 0.6073	–	868.69
[3], x1 = 0.6865	–	872.86
[3], x1 = 0.7472	–	875.67
[3], x1 = 0.7884	–	877.42
[3], x1 = 0.7982	–	877.81
[3], x1 = 0.8786	–	880.85
[3], x1 = 0.963	–	883.66
[3], x1 = 1	–	884.78
[4], x1 = 0.0244	0.0198	–
[4], x1 = 0.0512	0.0404	–
[4], x1 = 0.0839	0.0662	–
[4], x1 = 0.1195	0.0915	–
[4], x1 = 0.1562	0.116	–
[4], x1 = 0.192	0.138	–
[4], x1 = 0.2279	0.159	–
[4], x1 = 0.264	0.176	–
[4], x1 = 0.2993	0.196	–
[4], x1 = 0.3336	0.209	–
[4], x1 = 0.367	0.22	–
[4], x1 = 0.3861	0.226	–
[4], x1 = 0.4156	0.237	–
[4], x1 = 0.4625	0.252	–
[4], x1 = 0.5081	0.261	–
[4], x1 = 0.5867	0.262	–
[4], x1 = 0.6887	0.24	–
[4], x1 = 0.7931	0.194	–
[4], x1 = 0.8868	0.127	–
[4], x1 = 0.957	0.0574	–

CCCCC(=O)OC [methyl pentanoate] + COC=O
Details	excess molar enthalpy [kcal/mol]	mass density [kg/m3]
[3], x1 = 0.0555	–	956.19
[3], x1 = 0.104	–	948.47
[3], x1 = 0.1464	–	942.39
[3], x1 = 0.2093	–	934.27
[3], x1 = 0.2537	–	929.22
[3], x1 = 0.3106	–	923.46
[3], x1 = 0.3493	–	919.84
[3], x1 = 0.4011	–	915.46
[3], x1 = 0.4572	–	911.17
[3], x1 = 0.5	–	908.17
[3], x1 = 0.5539	–	904.69
[3], x1 = 0.6081	–	901.55
[3], x1 = 0.6522	–	899.15
[3], x1 = 0.7258	–	895.5
[3], x1 = 0.7765	–	893.24
[3], x1 = 0.836	–	890.8
[3], x1 = 0.9031	–	888.23
[3], x1 = 1	–	884.78
[4], x1 = 0.0272	0.0141	–
[4], x1 = 0.0583	0.0268	–
[4], x1 = 0.0932	0.0409	–
[4], x1 = 0.1292	0.055	–
[4], x1 = 0.172	0.0696	–
[4], x1 = 0.2104	0.0813	–
[4], x1 = 0.2533	0.0906	–
[4], x1 = 0.2946	0.0958	–
[4], x1 = 0.3096	0.0987	–
[4], x1 = 0.3486	0.101	–
[4], x1 = 0.3982	0.103	–
[4], x1 = 0.4522	0.103	–
[4], x1 = 0.5232	0.0978	–
[4], x1 = 0.6056	0.0875	–
[4], x1 = 0.6943	0.0727	–
[4], x1 = 0.7968	0.0523	–
[4], x1 = 0.8656	0.0347	–
[4], x1 = 0.93	0.0201	–
